Reference: patent US20250145580A1, “AN IMPROVED PROCESS FOR THE PREPARATION OF FERRIC MALTOL” (RK Pharma Inc., priority 2021, published 2025)

Legend:
[1] = Stress Stability study of Polymorphic Form Alpha (PXRD after stress); assay type: physicochemical
[2] = Stress Stability study of Polymorphic Form RK2 (XRPD after stress); assay type: physicochemical

Row | Compound | PXRD ([1]; 75% RH, 15 h) | PXRD ([1]; 90% RH, 15 h) | PXRD ([1]; Drying at 30° C., 3 h) | PXRD ([1]; Drying at 70° C., 3 h) | PXRD ([1]; Drying at 100° C., 3 h) | PXRD ([1]; Grinding, 10 min) | PXRD ([1]; Hexane Slurry) | PXRD ([1]; Pressure study (17 Kg/cm2; 15 min)) | XRPD pattern after subjecting to various stress conditions ([1]; various stress conditions as mentioned in the Table 1) | XRPD ([2]; 50% RH, 12 h) | XRPD ([2]; 75% RH, 12 h) | XRPD ([2]; 90% RH, 12 h) | XRPD ([2]; Drying at 100° C., 3 h) | XRPD ([2]; Drying at 150° C., 3 h) | XRPD ([2]; MTBE Slurry, 12 h) | XRPD ([2]; Micronization study) | XRPD ([2]; Pressure study (Pressure: 17.5 Kg/cm^2)) | XRPD pattern after subjecting to various stress conditions ([2]; various stress conditions as mentioned in the Table 2)
1 | Cc1occc(=O)c1[O-].Cc1occc(=O)c1[O-].Cc1occc(=O)c1[O-].[Fe+3] [Polymorphic Form Alpha, 3-hydroxy-2-methyl-4H-pyrane-4-one iron (III) complex (3:1)] | Form Alpha | Form Alpha | Form Alpha | Form Alpha | Form Alpha | Form Alpha | Form Alpha | Form Alpha | stable |  |  |  |  |  |  |  |  | 
2 | Cc1occc(=O)c1[O-].Cc1occc(=O)c1[O-].Cc1occc(=O)c1[O-].[Fe+3] [Polymorphic Form RK2] |  |  |  |  |  |  |  |  |  | Form RK2 | Form RK2 | Form RK2 | Form RK2 | Form RK2 | Form RK2 | Form RK2 | Form RK2 | stable
